This is an account of results in US20090005435A1, “Novel Compounds, Pharmaceutical Compositions Containing Same, and Methods of Use for Same” (priority 2004, published 2009).

The target in one assay is T1, CPT-1 (Homo sapiens, UniProt P50416).
T1 construct: This assay uses permeabilized cells to measure the transfer of [methyl-^14C]L-carnitine; endogenous in cells; host or cells: MCF-7 cells, digitonin-permeabilized
T1 sequence (P50416 1-773): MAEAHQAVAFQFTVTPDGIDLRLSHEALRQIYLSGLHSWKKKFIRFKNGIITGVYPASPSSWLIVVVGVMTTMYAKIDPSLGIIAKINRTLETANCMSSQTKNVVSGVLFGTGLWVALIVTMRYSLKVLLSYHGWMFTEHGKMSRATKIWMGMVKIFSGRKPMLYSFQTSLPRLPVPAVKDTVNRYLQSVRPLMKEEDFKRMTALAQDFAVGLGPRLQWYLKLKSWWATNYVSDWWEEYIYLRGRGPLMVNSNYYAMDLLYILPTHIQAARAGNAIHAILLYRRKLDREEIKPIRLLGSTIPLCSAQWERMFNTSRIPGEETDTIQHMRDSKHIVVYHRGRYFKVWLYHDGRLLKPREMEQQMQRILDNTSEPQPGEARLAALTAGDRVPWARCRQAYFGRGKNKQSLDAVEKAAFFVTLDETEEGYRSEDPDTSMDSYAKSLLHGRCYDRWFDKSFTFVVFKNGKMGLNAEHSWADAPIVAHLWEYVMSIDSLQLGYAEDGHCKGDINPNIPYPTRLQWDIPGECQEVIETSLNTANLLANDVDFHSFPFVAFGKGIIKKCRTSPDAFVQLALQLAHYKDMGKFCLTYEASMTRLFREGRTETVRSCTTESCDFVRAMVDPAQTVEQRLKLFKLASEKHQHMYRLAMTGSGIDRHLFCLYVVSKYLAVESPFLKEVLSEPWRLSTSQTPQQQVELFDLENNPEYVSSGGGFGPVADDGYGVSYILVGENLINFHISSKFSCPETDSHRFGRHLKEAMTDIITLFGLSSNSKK
Put plainly: Carnitine palmitoyltransferase-1 (CPT-1) assay in permeabilized MCF-7 cells. Type of assay: cell-based. Conditions: at 20 ug/ml. Here is the method:
Carnitine Palmitoyltransferase-1 (CPT-1) Assay
CPT-1 catalyzes the ATP dependent transfer of long-chain fatty acids from acyl-CoA to acyl-carnitine that is inhibited by malonyl-CoA. As CPT-1 requires the mitochondrial membrane for activity, enzyme activity is measured in permeabilized cells or mitochondria. This assay uses permeabilized cells to measure the transfer of [methyl-^14C]L-carnitine to the organically soluble acyl-carnitine deriviative.
MCF-7 cells are plated in DMEM with 10% fetal bovine serum at 10^6 cells in 24-well plates in triplicate for controls, drugs, and malonyl-CoA. Two hours before commencing the assay, drugs are added at the indicated concentrations made from stock solutions at 10 mg/ml in DMSO, vehicle controls consist of DMSO without drug. Since malonyl-CoA cannot enter intact cells, it is only added in the assay buffer to cells that have not been preincubated with drugs. Following overnight incubation at 37° C., the medium is removed and replaced with 700 μl of assay buffer consisting of: 50 mM imidazole, 70 mM KCl, 80 mM sucrose, 1 mM EGTA, 2 mM MgCl2, 1 mM DTT, 1 mM KCN, 1 mM ATP, 0.1% fatty acid free bovine serum albumin, 70 μM palmitoyl-CoA, 0.25 μCi [methyl-^14C]L-carnitine, 40 μg digitonin with drug, DMSO vehicle control, or 20 μM malonyl-CoA. […] The butanol phase is counted by liquid scintillation and represents the acylcarnitine derivative.

Assay [1] relates to Escherichia coli (ATCC #25922). Briefly: Broth microdilution MIC, E. coli. It counts as cell-based. Here is the method:
A broth microdilution assay is used to assess the antimicrobial activity of the compounds. Compounds are tested at twofold serial dilutions, and the concentration that inhibits visible growth (OD600 at 10% of control) is defined as the MIC. Microorganisms tested include Staphylococcus aureus (ATCC #29213), Enterococcus faecalis (ATCC #29212), Pseudomonas aeruginosa (ATCC #27853), and Escherichia coli (ATCC #25922). The assay is performed in two growth media, Mueller Hinton Broth and Trypticase Soy Broth.
A blood (Tsoy/5% sheep blood) agar plate is inoculated from frozen stocks maintained in T soy broth containing 10% glycerol and incubated overnight at 37° C. Colonies are suspended in sterile broth so that the turbidity matches the turbidity of a 0.5 McFarland standard. The inoculum is diluted 1:10 in sterile broth (Mueller Hinton or Trypticase soy) and 195 ul is dispensed per well of a 96-well plate. […]
After 24 hours of incubation at 37° C., plates are read at OD600 on a Molecular Devices SpectraMax Plus Spectrophotometer. Average OD600 values are computed using SOFTmax Pro Software (Molecular Devices) and MIC values are determined by linear regression analysis using Prism version 3.02 (Graph Pad Software, San Diego). […]

On to `C=CCC1(CC=C)C(=O)SC(C)(CCCCCCCC)C1=O` (racemic) [Compound 4, 3,3-Diallyl-5-methyl-5-octyl-thiophene-2,4-dione], for which the “CPT I Stim” value at CPT-1 was 125% of control. Besides, the “Ecoli/MH (MIC)” value in assay [1] (Mueller Hinton Broth) is “Neg”. For the same molecule, in assay [1] (Trypticase Soy Broth), the Ecoli/Tsoy result is “Neg”.
